Source: a melting point compilation (Tetko et al.; mined from patent text by program, amines drawn as free bases though some values may be those of a salt)

melting point [°C] | SMILES
114 to 115 | Nc1[nH]ncc1C(=O)c1cccs1
193 to 196 | CC(=O)N1CCc2c(sc(C)c2CCN2CCC(c3nn(-c4ccc(F)cc4)c4cc(F)ccc34)CC2)C1
140 to 142 | COc1nc(N)nc2c1ncn2C1O[C@H](CO)C[C@@]1(C)O (some centres not stated)
229 to 231 | CS(=O)(=O)c1ccc(-c2[nH]c(I)cc2-c2ccc(F)cc2)cc1
164 to 165 | CCNc1nc(Cc2cc(OC)c(OC)c(OC)c2)nc2sc(C#N)c(C)c12
136 to 137 | CC(C(=O)O)(c1ccccc1)c1ccc(O)cc1 (configuration not stated)
195 to 197 | CN(C)c1ccc(C2(c3ccc(N(C)C)cc3N(C)C)OC(=O)c3c(Cl)c(Cl)c(Cl)c(Cl)c32)c(N(C)C)c1
265 to 266 | CCOC(=O)c1c(S)nc2cc(OC)c(OC)cc2c1-c1ccc(OC)c(OC)c1
139 to 141 | CCN(CC)CCCCNc1ncc2c(n1)N(C1CC1)C(=O)N(c1c(F)c(OC)cc(OC)c1F)C2
112 to 114 | CC(C(=O)OCCO)n1c(-c2ccc(Cl)cc2)nc2cccnc21 (configuration not stated)
195 to 196 | Cc1nnc(-c2ccc3occ(-c4ccc(C(=O)N5CCCC5)c(F)c4)c3c2)o1
178 to 180 | COc1ccccc1NC(=O)Nc1nc(Oc2ccc3ccccc3c2)nc(N(C)CCC(=O)O)n1
111 | CCOC(=O)N1CCc2nc3ccccc3c(N3CCCC3)c2CC1
93.6 | CC(C)OC(=O)C(C(=O)OC(C)C)=C1SC2C(S1)N(C)CCN2C (configuration not stated)
103 to 107 | Cc1cc(OCCN2CCOCC2)nn1-c1ccc2ccc(O)cc2c1
116 to 117 | Nc1ncc(Sc2ccc(F)cc2F)s1
144 to 147 | Cc1ccc(-n2cc(C)cc2-c2ccc(S(N)(=O)=O)cc2)cc1
164 to 166 | COc1ccc(/C=C(\C#N)c2c(Cl)cccc2Cl)cc1OC1CCCC1
139 | CCn1nc(-c2ccccc2)c(C(C)=O)c(Nc2ccc(CN)cc2)c1=O
273 to 276 | CC(=NNC(=N)N)c1sc(-c2ccc(C3CCCCC3)cc2)nc1C
207 to 208 | Clc1ccc(N2CCN(Cc3n[nH]c4c3CCc3ccccc3-4)CC2)nc1
269 to 272 | Cn1c(C#N)ccc1-c1ccc2c(c1)C1(CCCCC1)C(=S)N2
60.5 to 61 | COc1ccc(-c2snnc2SC)cc1
154 to 155 | c1ccc(Cn2ncc3c2-c2ccccc2C3(Cc2ccncc2)Cc2ccncc2)cc1
104 to 105 | c1ccc(-c2ncn(C3CCCCO3)c2-c2ccccc2)cc1 (configuration not stated)
142 to 147 | Cc1cn(CC(=O)N(CCNC(=O)OC(C)(C)C)CC(=O)O)c(=O)[nH]c1=O
130 to 132 | COc1cc(C(=O)N2CCN(C(=O)/C=C(\c3ccc(F)cc3)c3cc(OC)c(OC)c(OC)c3)CC2)cc(OC)c1OC
108 to 109 | CCCCCCCCCCCCCCOc1ccc(CNC(=O)NCc2ccccn2)cc1
316 to 318 | N#Cc1ccc(-c2ccc(-c3ccc(C#N)cn3)s2)cc1

Continued, molecule first:

SMILES | melting point [°C]
COC(=O)c1c(C)cn2cc(OCc3ccccc3)ccc12 | 143
CN(C)c1ccc(-c2cncc(OC3SCC(O)C(O)C3O)c2)cc1 (configuration not stated) | 240
Cc1c(NC(=O)c2ccc(OC[C@@H]3CCCO3)cc2)ccc2cc(CN[C@@H]3CCCC[C@H]3O)cnc12 | 142 to 143
OC(c1ccc(F)cc1)(c1ccc(F)cc1)C1CCN(Cc2ccccc2)C1 (configuration not stated) | 99 to 100
O=C(Cn1nc(C(F)(F)F)cc1Cl)N1CCC(c2nc(C3=NOC(c4ccccc4)C3)cs2)CC1 (configuration not stated) | 128 to 131
CCN1CCNC(=O)c2ccc(Nc3ncc(Cl)c(Nc4ccccc4C(=O)NC)n3)cc21 | 168 to 171
C#Cc1ccnc(-c2cc([N+](=O)[O-])c(-c3cc(C#C)ccn3)cc2N)c1 | 154 to 160
Nc1ccc2c(c1)SN(CCCCN1CCN(c3ncccn3)CC1)C2 | 150 to 151
CS(=O)(=O)c1cc([N+](=O)[O-])c(C(N)=O)cc1N1CC1 | 222 to 224
C=C(C)CCC(=O)C(C(=O)OCC)C1c2ccccc2C(=O)N1c1ccc2ccc(Cl)nc2n1 (configuration not stated) | 125
Cc1cc2c(-c3ccccc3)c(CCNC(=O)OCc3ccccc3)n(C)c(=O)c2cc1C | 227 to 228
COc1cccc2cc(C(=O)Nc3ccc(-n4nc(C(F)(F)F)cc4C(F)(F)F)cc3)oc12 | 109 to 110
CC1(COC(=O)N2CC=C(c3ccc(C(F)(F)F)cc3)CC2)Cn2cc([N+](=O)[O-])nc2O1 (configuration not stated) | 113 to 115
CC(C)(C)OC(=O)Nc1cc2nc(-c3ccccc3)nn2cc1F | 180 to 188
CCCCCCCCCC(C)(C)c1cc(C(=O)Sc2ccc(C(=O)O)cc2)ccc1OC | 186 to 187
CC(Cc1ccccc1)(NC=O)c1ccccc1 (configuration not stated) | 97 to 99
O=C(CC(=O)C(F)F)c1ccc(N2CCOCC2)cc1 | 102 to 103
Cc1csc2c1S(=O)(=O)N(C)C(C(=O)Nc1cccccc1=O)=C2O | 229 to 233
CC(=O)Nc1cccc(-c2[nH]c3cccc4c3c2CCNC4=O)c1 | 300 to 302
CN(C)CCNC(=O)c1ccc(-c2cnc3c(c2)N(C(=O)c2ccccc2)CCN3)cc1 | 145 to 147
NC(=S)NC(=O)c1ccccc1 | 170 to 171
CC(C)(CO)NS(=O)(=O)c1cccc(NC(=O)c2cnn3c(C(F)(F)F)cc(-c4ccc(C(F)(F)F)cc4)nc23)c1 | 227
COC(=O)c1ccc2c(c1)CN(c1c(F)cc3c(=O)c(C(=O)O)cn(-c4ccc(F)cc4)c3c1F)C2 | 236 to 240

SMILES | melting point [°C]
CCOc1nc2cc(C)nn2c2cc(Cl)ncc12 | 176
COc1ccc(C)cc1NC(=O)Nc1ccc(C2CCN(C(=O)Nc3cc(OCCO)ccc3Cl)CC2)cc1 | 202 to 205
Cc1c[nH]c(=O)n(CCCCl)c1=O | 117 to 121
COCc1ccc(Cl)cc1C(=O)OC | 44 to 45
CCCC(=O)c1cnn(C)c1S(=O)(=O)NC(=O)Nc1nc(C)nc(OC)n1 | 174 to 176
NNc1cccc(F)c1[N+](=O)[O-] | 93 to 95
CCCc1ccc(C(=O)Nc2ccc3c(c2)CCCC3=O)cc1 | 168 to 170
COc1ccc(C=CC(=O)O)cc1-c1cc2c(cc1OCCCCCC(=O)O)C(C)(C)CCC2(C)C | 166 to 168
Nc1sc(-c2ccco2)c(CN(C2CCCCC2)C2CCCCC2)c1C(=O)c1ccc(Cl)cc1 | 158 to 160
N#CN=C(Nc1ccncc1)NC1CCCCCCC1 | 198 to 199
COc1ccc(-c2cc(-c3ccc(-c4c(Cc5ccccc5)sc5ccccc45)cc3)cc(Br)c2OCC(=O)O)cc1OC | 103 to 105
CCCCNN1C=c2cc(-c3c(Cl)cccc3Cl)c(=O)n(C)c2=NC1 | 184 to 186
O=C(O)Cc1cc(C(=O)Cc2ccccc2Cl)ccc1O | 230
COc1ccccc1Oc1cccc2c1NC(=O)C2SC (configuration not stated) | 114
CC(C)C1CC(=O)C(C(=O)NS(=O)(=O)c2ccccc2)C(=O)C1 (configuration not stated) | 112 to 114
C=CCC(O)CCCCCCCCCCCCCCC (configuration not stated) | 37 to 39.5
CCC(NS(=O)(=O)c1ccc(Cl)cc1)c1ccccc1 (configuration not stated) | 140 to 142
CCCn1c(=O)n(Cc2ccccc2)c(=O)c2nc(-c3ccc(/C=C/C(=O)O)cc3)[nH]c21 | > 300
c1ccc2c(c1)Cn1cccc1C1CNCCN21 (configuration not stated) | 56 to 58
CCCc1ccc(Cc2cccc(NC(N)=O)c2)n1CCC | 123 to 126
CC(C(=O)O)c1ccc(C=C2CCCCC2O)cc1 (configuration not stated) | 135 to 136
Cc1nnc2n1-c1ccc(Cl)cc1N(c1ccccc1)C(=O)C2 | 297 to 298
COc1cc(C)c(C(=O)c2c(Cl)cccc2Cl)cc1OC | 101 to 103

SMILES | melting point [°C]
COc1ccc(OCCCCCc2cc(C)on2)c(Cl)c1 | 45 to 47
CCN1CCC2(CC1)COc1cc3c(cc12)N(C(=O)c1ccc(-c2ccc(C(=O)NN)cc2C)cc1)CC3 | 222 to 225
O=c1[nH]c2ccc(CCN3CCN(c4cccc5c4CCCC5)CC3)cc2o1 | 200
CC(=O)Nc1nc(CCc2ccc(N)cc2)c(C(=O)NCc2ccc(S(C)(=O)=O)cc2)s1 | 78 to 80
CCCCc1nn(Cc2ccc(C(=O)O)cc2)c2ccccc2c1=O | 220
COc1cc2c(cc1OC)CCN(CCCN(C)C1CCc3cc(OC)c(OC)cc3C1)C=C2 (configuration not stated) | 115 to 116
O=C(Nc1ccccn1)c1cnc2c(c1O)CN(C(=O)OCc1ccccc1)CC2 | 272 to 274
O=C1OC(c2ccccc2)(c2ccccc2)CC(O)=C1CCCc1ccccc1 | 61 to 63
OCc1cn(-c2ccc3ncccc3c2)cn1 | 183 to 187
CCOC(=O)c1ncc2[nH]c3cccc(Oc4ccc(Cl)cn4)c3c2c1COC | 156 to 158
CCC(=O)OC(C#N)C(C#N)c1ccc(OC)c(OC)c1 (configuration not stated) | 92 to 94
CNS(=O)(=O)c1cc(C(=O)c2c(C)[nH]c3ccccc23)ccc1Cl | 246
CS(=O)(=O)N1CCN2C(=O)N(c3ccc(C#N)c4ccccc34)C(=O)C2C1 (configuration not stated) | 207 to 216
CCCOc1ccc(F)cc1-c1ccc(C(N)=O)c(=O)[nH]1 | 223 to 224
CSC(Nc1cccc(C#N)c1)=C(C#N)S(=O)(=O)c1ccc(Cl)cc1 | 168 to 170
CCOC(=O)N(C)c1cccc(-c2ccc3nnc(C)n3n2)c1 | 146 to 149
COC(=O)Cc1ccc(OCC(C)NC(C)C(O)c2ccccc2)cc1 (configuration not stated) | 122
Cc1nc(COc2ccc3nc(N)c4nc5n(c4c3c2)C(C)COC5)cs1 (configuration not stated) | 105 to 107
CC(O)c1c[nH]c(-c2ccccc2)n1 (configuration not stated) | 197 to 198
Cc1cc2c(cc1O)C(C)(C)CC1(CC(C)(C)c3cc(OCCCn4ccnc4)c(C)cc3O1)O2 (configuration not stated) | 209 to 211
CCOCCNCc1ccc(C(=O)Nc2nc(-c3ccccc3)c(-c3ccc(=O)n(C(C)C)n3)s2)cc1 | 153 to 154
N#Cc1nn(-c2c(Cl)cc(C(F)(F)F)cc2Cl)c(Cl)c1SC(F)(F)F | 131 to 132
